Results reported in ChEMBL document CHEMBL1156494, “Stelliferin riboside, a triterpene monosaccharide isolated from the Fijian sponge Geodia globostellifera” (J Nat Prod, 2001).
Values after ≈ are worked out from the molar mass of the structure shown.

Legend:
A2780 = experiment: Cytotoxicity against human A2780 cells; format: functional, cell-based
K562 = experiment: Cytotoxicity against human K562 cells; format: functional, cell-based

## C\C(=C/C=C/C(C)=C1/C(=O)C[C@H]2[C@@]3(C)CCC(=O)C(C)(C)[C@@H]3CC[C@]12C)c1ccc(C)c(=O)o1 [STELLETIN A]
A2780
  IC50: 1.52 µg/mL (≈ 3.29 µM)
K562
  IC50: 3.82 µg/mL (≈ 8.26 µM)

## CC(/C=C/C=C(\C)c1ccc(C)c(=O)o1)=C1/C(=O)C[C@H]2[C@@]3(C)CCC(=O)C(C)(C)[C@@H]3CC[C@]12C [STELLETTIN B]
A2780
  IC50: 0.0051 µg/mL (≈ 0.011 µM)
K562
  IC50: 0.93 µg/mL (≈ 2.01 µM)

## CC(=O)O[C@@H]1CC[C@@]2(C)[C@@H](CC[C@]3(C)/C(=C(C)/C=C/C=C(\C)C(CC=C(C)C)O[C@@H]4OC[C@@H](O)[C@@H](O)[C@H]4O)C(=O)C[C@@H]23)C1(C)C (stereo partly specified) [STELLIFERIN RIBOSIDE]
A2780
  IC50: 38.1 µg/mL (≈ 60.6 µM)
K562
  IC50: > 50 µg/mL
